# Data as given in patent US5288720A, “Angiotensin II receptor blocking 2,3,6 substituted quinazolinones” (American Cyanamid Company, priority 1993, dated 1994).
# Tested on: ANGIOTENSIN II VASOPRESSOR RESPONSE
# Test: AII Challenge: blockade of angiotensin II vasopressor response in conscious SHR
# Type: in vivo, rat (Conscious Male Okamoto-Aoki SHR)
# Conditions: SHR n=2
# Outline: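 Conscious male Okamoto-Aoki SHR (16-20 weeks, ~330 g) cannulated in aorta and vena cava under local procaine; angiotensin II (human) 0.05 and 0.1 ug/kg i.v. given before and at 30-300 min after test compound i.v., i.p. or orally. Rise in systolic pressure (mmHg) expressed as % blockade versus each rat's predose response.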
# [1] = 3 mg/kg p.o., AII 0.05 mcg/kg IV, 30 min post dose
# [2] = 3 mg/kg p.o., AII 0.05 mcg/kg IV, 60 min post dose
# [3] = 3 mg/kg p.o., AII 0.05 mcg/kg IV, 90 min post dose
# [4] = 3 mg/kg p.o., AII 0.05 mcg/kg IV, 120 min post dose
# [5] = 3 mg/kg p.o., AII 0.05 mcg/kg IV, 180 min post dose
# [6] = 3 mg/kg p.o., AII 0.05 mcg/kg IV, 240 min post dose
# [7] = 3 mg/kg p.o., AII 0.05 mcg/kg IV, 300 min post dose
# [8] = 3 mg/kg p.o., AII 0.1 mcg/kg IV, 30 min post dose
# [9] = 3 mg/kg p.o., AII 0.1 mcg/kg IV, 60 min post dose
# [10] = 3 mg/kg p.o., AII 0.1 mcg/kg IV, 90 min post dose
# [11] = 3 mg/kg p.o., AII 0.1 mcg/kg IV, 120 min post dose
# [12] = 3 mg/kg p.o., AII 0.1 mcg/kg IV, 180 min post dose
# [13] = 3 mg/kg p.o., AII 0.1 mcg/kg IV, 240 min post dose
# [14] = 3 mg/kg p.o., AII 0.1 mcg/kg IV, 300 min post dose
# [15] = 10 mg/kg i.v., AII 0.05 mcg/kg IV, 30 min post dose
# [16] = 10 mg/kg i.v., AII 0.05 mcg/kg IV, 60 min post dose
# [17] = 10 mg/kg i.v., AII 0.05 mcg/kg IV, 90 min post dose
# [18] = 10 mg/kg i.v., AII 0.05 mcg/kg IV, 120 min post dose
# [19] = 10 mg/kg i.v., AII 0.05 mcg/kg IV, 180 min post dose
# [20] = 10 mg/kg i.v., AII 0.05 mcg/kg IV, 240 min post dose
# [21] = 10 mg/kg i.v., AII 0.05 mcg/kg IV, 300 min post dose
# [22] = 10 mg/kg i.v., AII 0.1 mcg/kg IV, 30 min post dose
# [23] = 10 mg/kg i.v., AII 0.1 mcg/kg IV, 60 min post dose
# [24] = 10 mg/kg i.v., AII 0.1 mcg/kg IV, 90 min post dose
# [25] = 10 mg/kg i.v., AII 0.1 mcg/kg IV, 120 min post dose
# [26] = 10 mg/kg i.v., AII 0.1 mcg/kg IV, 180 min post dose
# [27] = 10 mg/kg i.v., AII 0.1 mcg/kg IV, 240 min post dose
# [28] = 10 mg/kg i.v., AII 0.1 mcg/kg IV, 300 min post dose
structure (smiles),measurement,setting,value
"CCCCc1nc2ccc(C(OC)C3CCCN(C)C3=O)cc2c(=O)n1Cc1ccc(-c2ccccc2-c2nn[nH]n2)cc1 (single isomer, unassigned; isomer 2) [Example 43, 2-Butyl-6-[methoxy(1-methyl-2-oxo-3-piperidinyl)methyl]-3-[[2'-(1H-tetrazol-5-yl)[1,1'-biphenyl]-4-yl]methyl]-4(3H)-quinazoline isomer 2]",% Inhibition of AII vasopressor response,[1],24%
same,Average Change (systolic blood pressure response to AII),[1],32.5 mmHg
same,% Inhibition of AII vasopressor response,[2],47%
same,Average Change (systolic blood pressure response to AII),[2],22.5 mmHg
same,% Inhibition of AII vasopressor response,[3],53%
same,Average Change (systolic blood pressure response to AII),[3],20 mmHg
same,% Inhibition of AII vasopressor response,[4],53%
same,Average Change (systolic blood pressure response to AII),[4],20 mmHg
same,% Inhibition of AII vasopressor response,[5],59%
same,Average Change (systolic blood pressure response to AII),[5],17.5 mmHg
same,% Inhibition of AII vasopressor response,[6],35%
same,Average Change (systolic blood pressure response to AII),[6],27.5 mmHg
same,% Inhibition of AII vasopressor response,[7],6%
same,Average Change (systolic blood pressure response to AII),[7],40 mmHg
same,% Inhibition of AII vasopressor response,[8],19%
same,Average Change (systolic blood pressure response to AII),[8],32.5 mmHg
same,% Inhibition of AII vasopressor response,[9],19%
same,Average Change (systolic blood pressure response to AII),[9],32.5 mmHg
same,% Inhibition of AII vasopressor response,[10],56%
same,Average Change (systolic blood pressure response to AII),[10],17.5 mmHg
same,% Inhibition of AII vasopressor response,[11],44%
same,Average Change (systolic blood pressure response to AII),[11],22.5 mmHg
same,% Inhibition of AII vasopressor response,[12],6%
same,Average Change (systolic blood pressure response to AII),[12],37.5 mmHg
same,% Inhibition of AII vasopressor response,[13],13%
same,Average Change (systolic blood pressure response to AII),[13],35 mmHg
same,% Inhibition of AII vasopressor response,[14],8%
same,Average Change (systolic blood pressure response to AII),[14],37 mmHg
same,% Inhibition of AII vasopressor response,[15],100%
same,Average Change (systolic blood pressure response to AII),[15],0 mmHg
same,% Inhibition of AII vasopressor response,[16],77%
same,Average Change (systolic blood pressure response to AII),[16],7.5 mmHg
same,% Inhibition of AII vasopressor response,[17],69%
same,Average Change (systolic blood pressure response to AII),[17],10 mmHg
same,% Inhibition of AII vasopressor response,[18],69%
same,Average Change (systolic blood pressure response to AII),[18],10 mmHg
same,% Inhibition of AII vasopressor response,[19],58%
same,Average Change (systolic blood pressure response to AII),[19],13.5 mmHg
same,% Inhibition of AII vasopressor response,[20],0%
same,Average Change (systolic blood pressure response to AII),[20],32.5 mmHg
same,% Inhibition of AII vasopressor response,[21],8%
same,Average Change (systolic blood pressure response to AII),[21],30 mmHg
same,% Inhibition of AII vasopressor response,[22],92%
same,Average Change (systolic blood pressure response to AII),[22],2.5 mmHg
same,% Inhibition of AII vasopressor response,[23],84%
same,Average Change (systolic blood pressure response to AII),[23],5 mmHg
same,% Inhibition of AII vasopressor response,[24],84%
same,Average Change (systolic blood pressure response to AII),[24],5 mmHg
same,% Inhibition of AII vasopressor response,[25],68%
same,Average Change (systolic blood pressure response to AII),[25],10 mmHg
same,% Inhibition of AII vasopressor response,[26],44%
same,Average Change (systolic blood pressure response to AII),[26],17.5 mmHg
same,% Inhibition of AII vasopressor response,[27],56%
same,Average Change (systolic blood pressure response to AII),[27],13.5 mmHg
same,% Inhibition of AII vasopressor response,[28],19%
same,Average Change (systolic blood pressure response to AII),[28],25 mmHg
